Reference: patent US20140088073A1, “METHODS FOR DETERMINING WHETHER A PATIENT SHOULD BE ADMINISTERED A DRUG THAT INHIBITS CHOLESTEROL ABSORPTION” (Boston Heart Diagnostics Corporation, priority 2012, published 2014)

Columns and labels:
[1] = system: patients with coronary heart disease; settings: comparing sterol/cholesterol ratios; previous studies; cited from earlier work
[2] = system: hypercholesterolemic subjects; assay: EASE study post hoc analysis: plasma lathosterol and β-sitosterol by gas chromatography mass spectrometry; format: in vivo, human; settings: for B-sitosterol / B-sitosterol/Lathosterol / B-sitosterol/Total C / Lathosterol / Lathosterol/Total C: baseline during ongoing statin therapy, by statin type, mean ± SD
Procedure: (§1) Briefly, hypercholesterolemic subjects (n=874) on statins received ezetimibe 10 mg/day. Plasma lipids, lathosterol, and β-sitosterol were measured at baseline and on treatment.
(§2) This study included subjects from the ezetimibe add-on to statin arm of the EASE study (http://clinicaltrials.gov identifier NCT00092586; Study Protocol 040). Details of the study design and outcomes have been published previously. (See Pearson T A, Denke M A, McBride P E, Battisti W P, Brady W E, Palmisano J. A community-based, randomized trial of ezetimibe added to statin therapy to attain NCEP ATP III goals for LDL cholesterol in hypercholesterolemic patients: the ezetimibe add-on to statin for effectiveness (EASE) trial. Mayo Clin Proc 2005; 80:587-95; Pearson T A, Denke M A, McBride P E, et al. Effectiveness of ezetimibe added to ongoing statin therapy in modifying lipid profiles and low-density lipoprotein cholesterol goal attainment in patients of different races and ethnicities: a substudy of the Ezetimibe add-on to statin for effectiveness trial. Mayo Clin Proc 2006; 81:1177-85.)
(§3) Briefly, the EASE study was a multicenter, randomized, double-blind, placebo-controlled, 6-week parallel-group study. Participants with hypercholesterolemia were recruited from community based practices across the United States. Inclusion criteria were: 1) age ≧18 years, 2) on a stable, approved dose of any statin, 3) following a cholesterol-lowering diet for ≧6 weeks before study entry, and 4) LDL-C levels above risk-based NCEP ATP III targets. Subjects receiving lipid-altering agents other than statins during the 6 weeks before screening were excluded. Patients were randomized to receive ezetimibe 10 mg/day or placebo plus their current statin therapy and dose for 6 weeks. Statin type and dose were maintained throughout the study. The research protocol was approved by the investigational review boards at each site, and all participants provided written informed consent prior to study start.
(§4) For this current post hoc analysis, we assessed subjects who were randomized into the ezetimibe 10 mg plus statin arm of the EASE study (n=1940). Of the 1124 subjects with samples available for measurement, only those who had complete sterol and lipid data at baseline and at the end of the 6-week study were included in this analysis (n=874). The mean age and other baseline characteristics of those included and excluded from this analysis were similar. Comparison of subjects was based on statin type or potency (low, medium, high) subgroups. The low potency statin group (predicted LDL-C reduction of ˜20-30%) included subjects receiving simvastatin ≦10 mg/day, lovastatin ≦20 mg/day, pravastatin ≦20 mg/day, and fluvastatin ≦40 mg/day. The medium potency statin group (predicted LDL-C reduction of ˜31-45%) included subjects receiving simvastatin >10 to ≦40 mg/day, atorvastatin ≦20 mg/day, lovastatin >20 to 80 mg/day, pravastatin >20 to 80 mg/day, and fluvastatin >40 to 80 mg/day.
(§5) Plasma total cholesterol (total C), high-density lipoprotein cholesterol (HDL-C), and triglycerides (TG) were analyzed using standardized methods at the central laboratory of the trial (PPD Global Central Labs, Highland Heights, Kentucky, USA). LDL-C was calculated using the Friedewald formula. (See Friedewald W T, Levy R I, Fredrickson D S. Estimation of the concentration of low-density lipoprotein cholesterol in plasma, without use of the preparative ultracentrifuge. Clin Chem 1972; 18:499-502.) Non-HDL-C was calculated by subtracting HDL-C from total C. Apolipoprotein (Apo) A-I, Apo B, and high-sensitivity C-reactive protein (hs-CRP) were measured by automated immunoassays at the central laboratory. Within and between coefficients for all assays were <10%. Plasma lathosterol and β-sitosterol were quantified by gas chromatography mass spectrometry after lipid extraction as previously described in Sudhop T, Lutjohann D, Kodal A, et al. Inhibition of intestinal cholesterol absorption by ezetimibe in humans. […]

[3] = system: hypercholesterolemic subjects; assay: EASE study post hoc analysis: plasma lipids, apolipoproteins and hs-CRP, ezetimibe add-on to ongoing statin therapy; format: in vivo, human; settings: for Triglyceride / Apo A1 / Apo B / HDL-C / Non-HDL-C / Total C / Total C/HDL-C ratio / LDL-C / hs-CRP: baseline during ongoing statin therapy, by statin type; for Apo A1 / Apo B / HDL-C / Non-HDL-C / Total C / Total C/HDL-C ratio / LDL-C: mean ± SD; for LDL-C: Friedewald formula; for hs-CRP: median ± robust SD; for reductions from baseline in LDL-C / mean percent LDL-C reduction / percent LDL-C reduction from baseline: 6 weeks; for reductions from baseline in LDL-C: unadjusted data; for mean percent LDL-C reduction / percent change from baseline in LDL-C / percent change from baseline in non-HDL-C / percent change from baseline in total C/HDL-C: ezetimibe add-on
Procedure: as §1, §2, §3, §4, §5

[4] = literature; cited from earlier work
[5] = overall study population, ezetimibe add-on to statin, 6 weeks
[6] = subjects with baseline sitosterol/lathosterol above the median
[7] = subjects with baseline sitosterol/lathosterol ≦ the median

CC(C)c1c(C(=O)Nc2ccccc2)c(-c2ccccc2)c(-c2ccc(F)cc2)n1CC[C@@H](O)C[C@@H](O)CC(=O)O [Atorvastatin, atorvastatin]
increase of plant sterols [1]: 82%
reduction of precursor sterols [1]: −50%
B-sitosterol [2]: 5.40 ± 2.93 µmol/L
B-sitosterol/Lathosterol [2]: 4.22 ± 4.39
B-sitosterol/Total C [2]: 1.01 ± 0.57 μmol/mmol
Lathosterol [2]: 2.20 ± 1.70 µmol/L
Lathosterol/Total C [2]: 0.39 ± 0.26 μmol/mmol
Triglyceride [3]: 149.0 ± 85.6 mg/dL
Apo A1 [3]: 156.3 ± 26.1 mg/dL
Apo B [3]: 129.2 ± 25.4 mg/dL
HDL-C [3]: 47.8 ± 10.7 mg/dL
Non-HDL-C [3]: 162.0 ± 33.6 mg/dL
Total C [3]: 209.7 ± 35.4 mg/dL
Total C/HDL-C ratio [3]: 4.55 ± 1.05
LDL-C [3]: 130.0 ± 30.9 mg/dL
hs-CRP [3]: 2.40 ± 3.53 mg/L

CC[C@H](C)C(=O)O[C@H]1C[C@H](O)C=C2C=C[C@H](C)[C@H](CC[C@@H](O)C[C@@H](O)CC(=O)O)[C@H]21 [Pravastatin, pravastatin]
B-sitosterol [2]: 4.72 ± 2.51 µmol/L
B-sitosterol/Lathosterol [2]: 2.11 ± 2.10
B-sitosterol/Total C [2]: 0.86 ± 0.48 μmol/mmol
Lathosterol [2]: 3.08 ± 1.69 µmol/L
Lathosterol/Total C [2]: 0.55 ± 0.26 μmol/mmol
Triglyceride [3]: 155.0 ± 80.0 mg/dL
Apo A1 [3]: 160.5 ± 28.2 mg/dL
Apo B [3]: 131.3 ± 26.0 mg/dL
HDL-C [3]: 48.6 ± 12.0 mg/dL
Non-HDL-C [3]: 166.9 ± 34.5 mg/dL
Total C [3]: 215.5 ± 34.9 mg/dL
Total C/HDL-C ratio [3]: 4.65 ± 1.25
LDL-C [3]: 133.1 ± 28.3 mg/dL
hs-CRP [3]: 2.70 ± 4.09 mg/L

CCC(C)(C)C(=O)O[C@H]1C[C@@H](C)C=C2C=C[C@H](C)[C@H](CC[C@@H]3C[C@@H](O)CC(=O)O3)[C@H]21 [Simvastatin, simvastatin]
B-sitosterol [2]: 4.33 ± 2.17 µmol/L
B-sitosterol/Total C [2]: 0.82 ± 0.40 μmol/mmol
Lathosterol [2]: 2.47 ± 1.68 µmol/L
Lathosterol/Total C [2]: 0.46 ± 0.28 μmol/mmol
Triglyceride [3]: 149.0 ± 88.4 mg/dL
Apo A1 [3]: 157.7 ± 26.3 mg/dL
Apo B [3]: 125.8 ± 23.2 mg/dL
HDL-C [3]: 48.2 ± 11.8 mg/dL
Non-HDL-C [3]: 157.4 ± 30.2 mg/dL
Total C [3]: 205.5 ± 31.4 mg/dL
Total C/HDL-C ratio [3]: 4.46 ± 1.10
LDL-C [3]: 124.3 ± 26.1 mg/dL
hs-CRP [3]: 2.50 ± 3.81 mg/L

O=C1[C@H](CC[C@H](O)c2ccc(F)cc2)[C@@H](c2ccc(O)cc2)N1c1ccc(F)cc1 [ezetimibe]
mean lathosterol levels increased by [2, 5]: 52%
mean lathosterol/cholesterol ratio increased by [2, 5]: 83.8%
mean β-sitosterol levels decreased by [2, 5]: 47.4%
mean β-sitosterol/cholesterol ratio decreased by [2, 5]: 36.3%
overall percent change in the mean β-sitosterol/lathosterol ratio [2, 5]: −52.4%
LDL-C lowered by ([3]; addition of ezetimibe to any statin): 23-26%
reductions from baseline in LDL-C ([3]; ezetimibe 10 mg/day added to ongoing high potency statin): −29.1%
reductions from baseline in LDL-C ([3]; ezetimibe 10 mg/day added to ongoing low potency statin): −22.7%
reductions from baseline in LDL-C ([3]; ezetimibe 10 mg/day added to ongoing medium potency statin): −25.0%
mean percent LDL-C reduction ([3]; high potency statin group): 29.1%
mean percent LDL-C reduction ([3]; low potency statin group): 22.7%
mean percent LDL-C reduction ([3]; medium potency statin group): 25.0%
percent change from baseline in LDL-C [3, 6]: −26.7%
percent change from baseline in non-HDL-C [3, 6]: −24.2%
percent change from baseline in total C/HDL-C [3, 6]: −19.0%
percent change from baseline in LDL-C [3, 7]: −24.1%
percent change from baseline in non-HDL-C [3, 7]: −21.6%
percent change from baseline in total C/HDL-C [3, 7]: −17.0%
percent LDL-C reduction from baseline ([3]; ezetimibe combination with ongoing atorvastatin): 26.4%
percent LDL-C reduction from baseline ([3]; ezetimibe combination with ongoing lovastatin or fluvastatin): 24.1%
percent LDL-C reduction from baseline ([3]; ezetimibe combination with ongoing pravastatin): 23.1%
percent LDL-C reduction from baseline ([3]; ezetimibe combination with ongoing simvastatin): 26.4%
reduces LDL-C levels by [4]: 15-20%
